Test [1] relates to Staphylococcus aureus. As to the kind of experiment: Antibacterial activity against methicillin-resistant Staphylococcus aureus ATCC 33591 by XTT assay.
Test [2] has as its system Staphylococcus aureus. As to the kind of experiment: Antibacterial activity against methicillin-resistant Staphylococcus aureus ATCC 43300 by XTT assay.
Test [3] has as its system Staphylococcus aureus. As to the kind of experiment: Antibacterial activity against methicillin-susceptible Staphylococcus aureus ATCC 29213 by XTT assay.
The next test concerns Enterococcus faecalis. As to the kind of experiment: microbe, parasite or virus in culture. The conditions noted are these: ATCC 51299. Type of test: functional.
The subject of another test is Enterococcus faecium. As to the kind of experiment: Antibacterial activity against vancomycin-susceptible Enterococcus faecium ATCC 35667 by XTT assay. (Tetrazolium dyes change colour on reduction, which living cells bring about.)
The next test relates to Escherichia coli. As to the kind of experiment: Antibacterial activity against Escherichia coli ATCC 25922 by XTT assay. Type of test: functional.
The test system of test [4] is Staphylococcus aureus. As to the kind of experiment: Antibacterial activity against methicillin-susceptible Staphylococcus aureus ATCC 25923 by XTT assay.

In brackets after ≈: the same amount, converted by molar mass.

Description for Enterococcus faecalis: Antibacterial activity against vancomycin-susceptible Enterococcus faecalis ATCC 51299 by XTT assay

Regarding `CCCCCCC(C)/C=C(\C)C(=O)O[C@@]1(C)C(=O)C2=COC(C3=C(C)CC(O)CC3=O)=CC2=C(Cl)C1=O` (stereo partly specified), the MIC with Staphylococcus aureus [1] was 6.25 µg/mL (≈ 11.8 µM); in the test on Staphylococcus aureus [2], 6.25 µg/mL (≈ 11.8 µM); in the test on Staphylococcus aureus [3], 6.25 µg/mL (≈ 11.8 µM); in the test on Enterococcus faecalis, 12.5 µg/mL (≈ 23.5 µM); with Enterococcus faecium it was 12.5 µg/mL (≈ 23.5 µM); against Escherichia coli it was over 50 µg/mL. The same compound returned an MIC in the test on Staphylococcus aureus [4] of 12.5 µg/mL (≈ 23.5 µM).

Consider `Cc1cccc(O)c1C1=CC2=CC(=O)[C@](C)(O)C(=O)C2=CO1`, for which the MIC against Staphylococcus aureus [1], in the test with Staphylococcus aureus [2], in the test with Staphylococcus aureus [3], against Enterococcus faecalis, in the test with Enterococcus faecium and in the test on Escherichia coli was over 50 µg/mL in each case. Further, the MIC against Staphylococcus aureus [4] is over 50 µg/mL.

As to `CCCCCCC(C)/C=C(\C)C(=O)O[C@@]1(C)C(=O)C2=COC(c3c(C)cccc3O)=CC2=C(Cl)C1=O` (stereo partly specified), the MIC against Staphylococcus aureus [1] was 6.25 µg/mL (≈ 12.2 µM); in the test with Staphylococcus aureus [2], 6.25 µg/mL (≈ 12.2 µM); in the test on Staphylococcus aureus [3] it was 3.13 µg/mL (≈ 6.1 µM); with Enterococcus faecalis, 6.25 µg/mL (≈ 12.2 µM); in the test on Enterococcus faecium, 12.5 µg/mL (≈ 24.4 µM); against Escherichia coli it was over 50 µg/mL. Further, the MIC in the test on Staphylococcus aureus [4] worked out at 12.5 µg/mL (≈ 24.4 µM).

Take `CCCCCCC(C)/C=C(\C)C(=O)O[C@@]1(C)C(=O)C=C2C=C(C3=C(C)C[C@@H](O)CC3=O)OC=C2C1=O` (stereo partly specified): the MIC in the test with Staphylococcus aureus [1], against Staphylococcus aureus [2], against Staphylococcus aureus [3], in the test with Enterococcus faecalis, with Enterococcus faecium and in the test on Escherichia coli was over 50 µg/mL each time. In addition, the MIC against Staphylococcus aureus [4] is over 50 µg/mL.

For `Cc1onc(-c2ccccc2)c1C(=O)N[C@@H]1C(=O)N2[C@@H]1SC(C)(C)[C@@H]2C(=O)[O-].[Na+]`, the MIC against Staphylococcus aureus [1] was over 100 µg/mL; with Staphylococcus aureus [2], over 100 µg/mL; in the test on Staphylococcus aureus [3] it was 3.13 µg/mL; against Enterococcus faecalis, 50 µg/mL; in the test on Enterococcus faecium it was over 100 µg/mL; against Escherichia coli, over 100 µg/mL. The compound further returned an MIC against Staphylococcus aureus [4] of 0.78 µg/mL.

With `CCCCCCC(C)/C=C(\C)C(=O)O[C@@]1(C)C(=O)C=C2C=C(c3c(C)cccc3O)OC=C2C1=O` (stereo partly specified), the MIC was 3.13 µg/mL (≈ 6.54 µM) in the test on Staphylococcus aureus [1]; 3.13 µg/mL (≈ 6.54 µM) with Staphylococcus aureus [2]; 3.13 µg/mL (≈ 6.54 µM) against Staphylococcus aureus [3]; 3.13 µg/mL (≈ 6.54 µM) in the test on Enterococcus faecalis; 3.13 µg/mL (≈ 6.54 µM) against Enterococcus faecium; over 50 µg/mL with Escherichia coli. For the same compound, in the test with Staphylococcus aureus [4], the MIC came out at 3.13 µg/mL (≈ 6.54 µM).

As for `CN[C@H](CC(C)C)C(=O)N[C@H]1C(=O)N[C@@H](CC(N)=O)C(=O)N[C@H]2C(=O)N[C@H]3C(=O)N[C@H](C(=O)N[C@H](C(=O)O)c4cc(O)cc(O)c4-c4cc3ccc4O)[C@H](O)c3ccc(c(Cl)c3)Oc3cc2cc(c3O[C@@H]2O[C@H](CO)[C@@H](O)[C@H](O)[C@H]2O[C@H]2C[C@](C)(N)[C@H](O)[C@H](C)O2)Oc2ccc(cc2Cl)[C@H]1O.Cl` [VANCOMYCIN HYDROCHLORIDE], the MIC is 0.78 µg/mL against Staphylococcus aureus [1]; 0.39 µg/mL with Staphylococcus aureus [2]; 0.39 µg/mL in the test on Staphylococcus aureus [3]; 6.25 µg/mL with Enterococcus faecalis; 0.39 µg/mL against Enterococcus faecium; over 100 µg/mL in the test with Escherichia coli. The same compound gave an MIC against Staphylococcus aureus [4] of 1.56 µg/mL.

As for `Cc1cccc(O)c1C1=CC2=C(Cl)C(=O)[C@@](C)(O)C(=O)C2=CO1`, the MIC against Staphylococcus aureus [1] was 50 µg/mL (≈ 150 µM); in the test with Staphylococcus aureus [2], over 50 µg/mL; against Staphylococcus aureus [3] it was over 50 µg/mL; with Enterococcus faecalis, 50 µg/mL (≈ 150 µM); with Enterococcus faecium it was 50 µg/mL (≈ 150 µM); against Escherichia coli, over 50 µg/mL. This compound showed an MIC in the test with Staphylococcus aureus [4] of 25 µg/mL (≈ 75.1 µM).
